Assay: Solubility of sitagliptin salts in water at 25° C.
Procedure: The solubility in water was measured using Crysta™ from Avantium Technologies.

| solubility in water (in words) | Solubility in water (25° C.) | solubility (25 °C, thermodynamic from solid) | Molecule |
| --- | --- | --- | --- |
| very good | >500 mg/mL | – | N[C@@H](CC(=O)N1CCn2c(nnc2C(F)(F)F)C1)Cc1cc(F)c(F)cc1F.O=C[C@H](O)[C@@H](O)[C@H](O)[C@H](O)C(=O)O [D-Glucuronate, Sitagliptin D-Glucuronate] |
| – | – | 100 to 120 mg/mL | N[C@@H](CC(=O)N1CCn2c(nnc2C(F)(F)F)C1)Cc1cc(F)c(F)cc1F [Dihydrogen phosphate, sitagliptin dihydrogen phosphate, reference compound] |
| very good | – | – | Sitagliptin Oxalate |

Reference: patent publication US20120077760A1, “NOVEL SALTS OF SITAGLIPTIN” (LEK Pharmaceuticals D.D., priority 2009, published 2012)
